Source: paper PMC5190008, “BO-1055, a novel DNA cross-linking agent with remarkable low myelotoxicity shows potent activity in sarcoma models” (Oncotarget, 2016)

Experiments:
A673 spheroids = assay: Spheroid assay in 3D culture (methylcellulose); type: cell-based, human; conditions: A673 spheroids in methylcellulose, scored 14 days after plating
Experimental: A673 cells were seeded on flat bottom non attachment 24 well plates (1000 cells/well) in triplicate using 1.2 % methylcellulose (Dow Chemical, Waterloo, NY) mixed with 20% FCS and specified concentrations of BO-1055 or 4HC as shown in Figure 1D. Samples were incubated at 37°C / 5 % CO2 and colonies were scored 14 days after plating.

[1] = tested on: patient derived Ewing sarcoma xenografts; assay: Cyclophosphamide resistant patient-derived Ewing sarcoma xenografts; type: in vivo, NSG mice; conditions: cyclophosphamide MTD 70mg/kg i.p. q2d for 3 doses
Experimental: Patient derived xenografts were established from Ewing sarcoma patients who progressed through first line chemotherapy that included cyclophosphamide, doxorubicin, vincristine, ifosfamide and etoposide (PS3). When these Ewing sarcoma xenografts (n = 10) reached 100mm^3, they were randomized to control and treatment groups.
All mouse experiments were performed at the animal core facility at MSKCC under an approved protocol following the IACUC guidelines. Five to seven-week-old NOD/SCID IL2R gamma null (NSG) mice (bred at the Mouse Genetics Core Facility, MSKCC) were used for in vivo experiments. All mouse experiments were done following the IACUC guidelines at the animal facility at MSKCC. Tumors were induced using 10^6 A673 cells or A204 cells in 0.2ml 1:1 cellular medium, Matrigel matrix (BD Bioscience, Bedford, MA) and injected subcutaneously (s.q) into the right flank. The tumors were measured every 3 d with a caliper, and the diameters were recorded. Tumor volume was calculated by the formula a^2 b/2 where ‘a’ is the smallest and ‘b’ is the largest diameter. When the tumors reached 100mm^3, we randomized mice into control and drug treatment groups. Treatment groups received BO-1055 by tail vein injection at 10mg/kg, 20mg/kg and 30mg/kg q2d x 5 doses for mice bearing A673 xenografts. BO-1055 was given at 30mg/kg q2d x 5 doses for mice bearing A204 xenografts. […]

CCRF-CEM/Taxol cells = tested on: CCRF-CEM/Taxol cells; parameters: method as in PMID 21106377; conditions: CCRF-CEM/Taxol ref 6; cited from earlier work

With O=P1(N(CCCl)CCCl)NC(OO)CCO1 (stereo not drawn) [4-HC, 4-hydroperoxy cyclophosphamide, reference compound] the “concentration giving complete inhibition of spheroids” value (A673 spheroids) was 5 µM.

With O=P1(N(CCCl)CCCl)NCCCO1 (stereo not drawn) [cyclophosphamide, reference compound] the tumor growth [1] was “not inhibited”.

For CC(=O)O[C@H]1C(=O)[C@@]2(C)[C@H]([C@H](OC(=O)c3ccccc3)[C@]3(O)C[C@H](OC(=O)[C@H](O)[C@@H](NC(=O)c4ccccc4)c4ccccc4)C(C)=C1C3(C)C)[C@]1(OC(C)=O)CO[C@@H]1C[C@@H]2O [taxol, reference compound], the “resistance of CCRF-CEM/Taxol cells” value (CCRF-CEM/Taxol cells) is listed as 330 fold.
